From patent US20240018161A1, “MODULATORS OF CYSTIC FIBROSIS TRANSMEMBRANE CONDUCTANCE REGULATOR” (VERTEX PHARMACEUTICALS INCORPORATED, priority 2020, published 2024) come the findings set out here.

Structures are written as SMILES. Where only a bound is given, the exact number is not on record here.

T1 sequence (P13569 with tags, fused parts or gaps DEL508-508): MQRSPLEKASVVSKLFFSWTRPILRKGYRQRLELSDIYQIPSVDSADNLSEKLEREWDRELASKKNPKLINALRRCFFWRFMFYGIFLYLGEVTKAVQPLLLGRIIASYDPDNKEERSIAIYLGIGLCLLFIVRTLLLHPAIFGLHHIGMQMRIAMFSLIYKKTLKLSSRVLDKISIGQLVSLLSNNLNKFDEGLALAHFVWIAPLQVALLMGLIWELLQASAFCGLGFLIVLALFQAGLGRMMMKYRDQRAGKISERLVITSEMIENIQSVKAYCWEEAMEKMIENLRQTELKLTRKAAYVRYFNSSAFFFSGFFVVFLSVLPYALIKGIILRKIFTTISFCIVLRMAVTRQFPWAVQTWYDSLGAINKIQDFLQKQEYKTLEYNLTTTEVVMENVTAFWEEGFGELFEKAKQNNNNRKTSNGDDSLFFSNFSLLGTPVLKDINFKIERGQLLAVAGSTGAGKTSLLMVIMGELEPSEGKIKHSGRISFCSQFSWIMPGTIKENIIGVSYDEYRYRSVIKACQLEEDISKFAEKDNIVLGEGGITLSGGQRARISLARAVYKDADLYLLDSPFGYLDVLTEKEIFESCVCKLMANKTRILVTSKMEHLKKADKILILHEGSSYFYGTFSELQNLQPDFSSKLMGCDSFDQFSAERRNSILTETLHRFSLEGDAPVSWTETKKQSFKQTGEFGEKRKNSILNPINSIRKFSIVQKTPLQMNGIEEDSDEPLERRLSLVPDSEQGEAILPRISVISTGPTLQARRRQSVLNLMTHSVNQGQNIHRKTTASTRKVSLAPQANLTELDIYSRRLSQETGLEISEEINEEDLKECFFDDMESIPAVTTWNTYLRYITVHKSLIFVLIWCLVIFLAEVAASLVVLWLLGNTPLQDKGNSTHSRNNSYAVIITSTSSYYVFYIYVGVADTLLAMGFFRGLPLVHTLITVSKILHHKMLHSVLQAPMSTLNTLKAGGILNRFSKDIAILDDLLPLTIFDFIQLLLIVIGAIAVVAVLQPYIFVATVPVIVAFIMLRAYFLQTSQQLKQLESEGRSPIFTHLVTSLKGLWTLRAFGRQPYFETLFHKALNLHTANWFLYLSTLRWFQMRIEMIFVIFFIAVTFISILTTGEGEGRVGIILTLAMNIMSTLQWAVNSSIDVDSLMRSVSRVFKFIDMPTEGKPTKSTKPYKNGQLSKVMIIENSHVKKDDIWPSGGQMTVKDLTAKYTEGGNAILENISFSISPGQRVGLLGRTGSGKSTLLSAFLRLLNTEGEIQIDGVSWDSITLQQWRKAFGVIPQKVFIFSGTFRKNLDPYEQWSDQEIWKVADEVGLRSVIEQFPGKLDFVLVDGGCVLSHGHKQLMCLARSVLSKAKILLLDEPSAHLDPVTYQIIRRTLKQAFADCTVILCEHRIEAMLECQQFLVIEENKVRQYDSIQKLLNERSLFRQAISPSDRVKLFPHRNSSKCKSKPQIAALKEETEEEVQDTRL

The assay addresses T1, CFTR-mediated short-circuit current in F508del/MF-HBE cells (Homo sapiens, UniProt P13569, DEL508-508).
T1 construct: human bronchial epithelial (HBE) cells derived from CF subjects; endogenous in cells; host or cells: primary human bronchial epithelial cells from CF subjects (F508del/MF-HBE)
The assay is described as follows: HBE2 assay: Ussing chamber assay of CFTR-mediated short-circuit currents. Format: cell-based. On the procedure:
1. Ussing Chamber Assay of CFTR-Mediated Short-Circuit Currents
Ussing chamber experiments were performed using human bronchial epithelial (HBE) cells derived from CF subjects heterozygous for F508del and a minimal function CFTR mutation (F508del/MF-HBE) and cultured as previously described (Neuberger T, Burton B, Clark H, Van Goor F Methods Mol Biol 2011:741:39-54). After four days the apical media was removed, and the cells were grown at an air liquid interface for >14 days prior to use.
To isolate the CFTR-mediated short-circuit (ISC) current, F508del/MF-HBE grown on Costar® Snapwell™ cell culture inserts were mounted in an Ussing chamber and the transepithelial ISC was measured under voltage-clamp recording conditions (Vhold=0 mV) at 37° C. The basolateral solution contained (in mM) 145 NaCl, 0.83 K2HPO4, 3.3 KH2PO4, 1.2 MgCl2, 1.2 CaCl2, 10 Glucose, 10 HEPES (pH adjusted to 7.4 with NaOH) and the apical solution contained (in mM) 145 NaGluconate, 1.2 MgCl2, 1.2 CaCl2, 10 glucose, 10 HEPES (pH adjusted to 7.4 with NaOH) and 30 μM amiloride to block the epithelial sodium channel. Forskolin (20 μM) was added to the apical surface to activate CFTR, followed by apical addition of a CFTR inhibitor cocktail consisting of BPO, GlyH-101, and CFTR inhibitor 172 (each at 20 μM final assay concentration) to specifically isolate CFTR currents. The CFTR-mediated ISC (μA/cm^2) for each condition was determined from the peak forskolin response to the steady-state current following inhibition.
2. Identification of Corrector Compounds
The activity of the CFTR corrector compounds on the CFTR-mediated ISC was determined in Ussing chamber studies as described above. The F508del/MF-HBE cell cultures were either incubated with the corrector compounds at a range of concentrations in combination with 44 nM (6R,12R)-17-amino-12-methyl-6,15-bis(trifluoromethyl)-13,19-dioxa-3,4,18-triazatricyclo[12.3.1.12,5]nonadeca-1(18),2,4,14,16-pentaen-6-ol or were incubated with the corrector compounds at a single fixed concentration of 1 and 3 μM in combination with 44 nM (6R,12R)-17-amino-12-methyl-6,15-bis(trifluoromethyl)-13,19-dioxa-3,4,18-triazatricyclo[12.3.1.12,5]nonadeca-1(18),2,4,14,16-pentaen-6-ol for 18-24 hours at 37° C. and in the presence of […]. The concentration of corrector compounds with 44 nM (6R,12R)-17-amino-12-methyl-6,15-bis(trifluoromethyl)-13,19-dioxa-3,4,18-triazatricyclo[12.3.1.12,5]nonadeca-1(18),2,4,14,16-pentaen-6-ol during the 18-24 hours incubations was kept constant throughout the Ussing chamber measurement of the CFTR-mediated ISC to ensure compounds were present throughout the entire experiment.
In the case of `Cc1cccc(C)c1-c1cc2nc(n1)NS(=O)(=O)c1cccc(c1)C(=O)N1[C@@H](c3ncc(OC(C)C)cn3)CCC[C@@H](O2)[C@H]1CC(C)C` (single isomer, unassigned) [Compound 406, 12-(2,6-Dimethylphenyl)-21-isobutyl-20-(5-isopropoxypyrimidin-2-yl)-8,8-dioxo-15-oxa-8λ^6-thia-1,9,11,22-tetrazatetracyclo[14.4.1.13,7.110,14]tricosa-3,5,7(23),10(22),11,13-hexaen-2-one], the “HBE2 Activity at 3 μM (%)” value is recorded as “+++ (+++ is >60%)”. With `Cc1cccc(C)c1-c1cc2nc(n1)NS(=O)(=O)c1cccc(c1)C(=O)N1[C@@H](c3cccc(N(C)C4CC5(CC5)C4)n3)CC[C@H]1[C@@H](CC(C)C)O2` [Compound 425], the activation at 3 µM was in the range of 30 to 60%. On to `Cc1cccc(C)c1-c1cc2nc(n1)NS(=O)(=O)c1cccc(c1)C(=O)N1[C@@H](c3ncc(OC(C)C)cn3)CCC(C)(C)[C@H]1CO2` (single isomer, unassigned) [Compound 387, 13-(2,6-Dimethylphenyl)-4-(5-isopropoxypyrimidin-2-yl)-7,7-dimethyl-17,17-dioxo-10-oxa-17λ^6-thia-3,14,16,23-tetrazatetracyclo[16.3.1.111,15.03,8]tricosa-1(21),11,13,15(23),18(22),19-hexaen-2-one], for which the “HBE2 Activity at 3 μM (%)” value is recorded as “+++ (+++ is >60%)”. Still for that read-out and setting: to `Cc1cccc(C)c1-c1cc2nc(n1)NS(=O)(=O)c1cccc(c1)C(=O)N1[C@@H](c3ncc(OC(C)C)cn3)CCC[C@@H](CC(C)C)[C@H]1CO2` (single isomer, unassigned) [Compound 397, 14-(2,6-dimethylphenyl)-8-isobutyl-4-(5-isopropoxypyrimidin-2-yl)-18,18-dioxo-11-oxa-18λ^6-thia-3,15,17,24-tetrazatetracyclo[17.3.1.112,16.03,9]tetracosa-1(22),12,14,16(24),19(23),20-hexaen-2-one] belongs “+++ (+++ is >60%)”; to `Cc1cccc(C)c1-c1cc2nc(n1)NS(=O)(=O)c1cccc(c1)C(=O)N1[C@@H](c3ncc(OC(C)C)cn3)CCC[C@@H](O2)[C@H]1CC(C)C` (single isomer, unassigned) [Compound 409, 12-(2,6-dimethylphenyl)-21-isobutyl-20-(5-isopropoxypyrimidin-2-yl)-8,8-dioxo-15-oxa-8λ^6-thia-1,9,11,22-tetrazatetracyclo[14.4.1.13,7.110,14]tricosa-3,5,7(23),10(22),11,13-hexaen-2-one], “+ (+ is <30+)”. Take `Cc1cccc(C)c1-c1cc2nc(n1)NS(=O)(=O)c1cccc(c1)C(=O)N1[C@@H](c3ncc(OC(C)C)cn3)CCC[C@H]1[C@H](CC(C)C)O2` [Compound 423]: the activation at 3 µM was in the range of 30 to 60%. Turning to `Cc1cccc(C)c1-c1cc2nc(n1)NS(=O)(=O)c1cccc(c1)C(=O)N1[C@@H](c3ncc(OC(C)C)cn3)CC[C@H](O2)[C@H]1CC(C)C` [Compound 426], the activation at 3 µM is 30 to 60%.

Consider `Cc1cccc(C)c1-c1cc2nc(n1)NS(=O)(=O)c1cccc(c1)C(=O)N1[C@@H](c3ncc(OC(C)C)cn3)CCC[C@@H](O2)[C@H]1CC(C)C` (single isomer, unassigned) [Compound 408, 12-(2,6-Dimethylphenyl)-21-isobutyl-20-(5-isopropoxypyrimidin-2-yl)-8,8-dioxo-15-oxa-8λ^6-thia-1,9,11,22-tetrazatetracyclo[14.4.1.13,7.110,14]tricosa-3,5,7(23),10(22),11,13-hexaen-2-one], for which the “HBE2 Activity at 3 μM (%)” value is recorded as “+++ (+++ is >60%)”. For `Cc1cccc(C)c1-c1cc2nc(n1)NS(=O)(=O)c1cccc(c1)C(=O)N1[C@@H](c3ncc(OC(C)C)cn3)CCC[C@@H](CC(C)C)[C@H]1CO2` (single isomer, unassigned) [Compound 394, 14-(2,6-Dimethylphenyl)-8-isobutyl-4-(5-isopropoxypyrimidin-2-yl)-18,18-dioxo-11-oxa-18λ^6-thia-3,15,17,24-tetrazatetracyclo[17.3.1.112,16.03,9]tetracosa-1(22),12,14,16(24),19(23),20-hexaen-2-one], the “HBE2 Activity at 3 μM (%)” value was “+++ (+++ is >60%)”. As for `Cc1cccc(C)c1-c1cc2nc(n1)NS(=O)(=O)c1cccc(c1)C(=O)N1[C@@H](c3ncc(OC(C)C)cn3)CCC[C@@H](CC(C)C)[C@H]1CO2` (single isomer, unassigned) [Compound 398, 14-(2,6-Dimethylphenyl)-8-isobutyl-4-(5-isopropoxypyrimidin-2-yl)-18,18-dioxo-11-oxa-18λ^6-thia-3,15,17,24-tetrazatetracyclo[17.3.1.112,16.03,9]tetracosa-1(22),12,14,16(24),19(23),20-hexaen-2-one], the “HBE2 Activity at 3 μM (%)” value was “+++ (+++ is >60%)”. Same read-out and setting: the entry for `Cc1cccc(C)c1-c1cc2nc(n1)NS(=O)(=O)c1cccc(c1)C(=O)N1C[C@@H](CCCC[C@@H]1c1ncc(OCc3ccccc3)cn1)O2` [Compound 417] is “+ (+ is <30+)”. On the same count and under the same terms, the entry for `Cc1cccc(C)c1-c1cc2nc(n1)NS(=O)(=O)c1cccc(c1)C(=O)N1[C@@H](c3ncc(OC(C)C)cn3)CCC[C@@H](O2)[C@H]1CC(C)C` (single isomer, unassigned) [Compound 407, 12-(2,6-dimethylphenyl)-21-isobutyl-20-(5-isopropoxypyrimidin-2-yl)-8,8-dioxo-15-oxa-8λ^6-thia-1,9,11,22-tetrazatetracyclo[14.4.1.13,7.110,14]tricosa-3,5,7(23),10(22),11,13-hexaen-2-one] is “+ (+ is <30+)”; for `Cc1cccc(C)c1-c1cc2nc(n1)NS(=O)(=O)c1cccc(c1)C(=O)N1[C@@H](c3ncc(OC(C)C)cn3)CCC[C@@H](O2)[C@H]1CC(C)C` (single isomer, unassigned) [Compound 405, 12-(2,6-Dimethylphenyl)-21-isobutyl-20-(5-isopropoxypyrimidin-2-yl)-8,8-dioxo-15-oxa-8λ^6-thia-1,9,11,22-tetrazatetracyclo[14.4.1.13,7.110,14]tricosa-3,5,7(23),10(22),11,13-hexaen-2-one] it is “+++ (+++ is >60%)”. For the compound `Cc1cccc(C)c1-c1cc2nc(n1)NS(=O)(=O)c1cccc(c1)C(=O)N1[C@@H](CCCC[C@@H]1c1ncc(OCc3ccccc3)cn1)CO2` [Compound 419], the activation at 3 µM was 30 to 60%. Consider `Cc1cccc(C)c1-c1cc2nc(n1)NS(=O)(=O)c1cccc(c1)C(=O)N1[C@@H](c3cncc(N(C)C4CCC4)n3)CCC(O2)[C@H]1CC(C)C` (single isomer, unassigned) [Compound 410], for which the activation at 3 µM is over 60%. On to `Cc1cccc(C)c1-c1cc2nc(n1)NS(=O)(=O)c1cccc(c1)C(=O)N1[C@@H](c3cncc(N(C)C4CCC4)n3)CCC[C@@H](CC(C)C)[C@H]1CO2` (single isomer, unassigned) [Compound 402, 4-[6-[Cyclobutyl(methyl)amino]pyrazin-2-yl]-14-(2,6-dimethylphenyl)-8-isobutyl-18,18-dioxo-11-oxa-18λ^6-thia-3,15,17,24-tetrazatetracyclo[17.3.1.112,16.03,9]tetracosa-1(22),12,14,16(24),19(23),20-hexaen-2-one], for which the “HBE2 Activity at 3 μM (%)” value is recorded as “+++ (+++ is >60%)”. Turning to `Cc1cccc(C)c1-c1cc2nc(n1)NS(=O)(=O)c1cccc(c1)C(=O)N1[C@@H](c3ncc(OC(C)C)cn3)CCC[C@@H](CC(C)C)[C@H]1CO2` (single isomer, unassigned) [Compound 399, 14-(2,6-dimethylphenyl)-8-isobutyl-4-(5-isopropoxypyrimidin-2-yl)-18,18-dioxo-11-oxa-18λ^6-thia-3,15,17,24-tetrazatetracyclo[17.3.1.112,16.03,9]tetracosa-1(22),12,14,16(24),19(23),20-hexaen-2-one], the “HBE2 Activity at 3 μM (%)” value is given as “+ (+ is <30+)”. On to `Cc1cccc(C)c1-c1cc2nc(n1)NS(=O)(=O)c1cccc(c1)C(=O)N1[C@@H](c3cncc(N(C)C4CCC4)n3)CC[C@H](O2)[C@H]1CC(C)C` (single isomer, unassigned) [Compound 411], for which the activation at 3 µM was in the range of 30 to 60%.
